Test results as given in ChEMBL document CHEMBL4376834, “Discovery of 4H-Chromen-4-one Derivatives as a New Class of Selective Rho Kinase (ROCK) Inhibitors, which Showed Potent Activity in ex Vivo Diabetic Retinopathy Models” (J Med Chem, 2019).

Tests used:
[1] = molecular target: Serine/threonine-protein kinase 10 (Homo sapiens, UniProt O94804); assay: Inhibition of recombinant human LOK (1 to 348 residues) using RLGRDKYKTLRQI as substrate after 40 mins in presence of [gamma-33ATP] by radiometric scintillation counting analysis
[2] = molecular target: Myosin-IIIb (Homo sapiens, UniProt Q8WXR4); assay: Inhibition of recombinant human MYO3B (1 to 326 residues) using RLGRDKYKTLRQI as substrate measured after 40 mins in presence of [gamma33P]ATP by radiometric scintillation counting analysis
[3] = molecular target: Dual specificity protein kinase TTK (Homo sapiens, UniProt P33981, S389A); assay: Inhibition of recombinant full-length human TTK S389A mutant using MBP as substrate incubated for 40 mins in presence of [gamma33P]ATP by radiometric scintillation counting analysis
[4] = molecular target: Mast/stem cell growth factor receptor Kit (Homo sapiens, UniProt P10721, D816H); assay: Inhibition of recombinant human C-Kit D816H mutant (544 to end residues) using poly(Glu, Tyr) 4:1 as substrate incubated 40 mins in presence of [gamma-33ATP] by radiometric scintillation counting analysis
Chain of Mast/stem cell growth factor receptor Kit (P10721 26-976 D816H limits assumed): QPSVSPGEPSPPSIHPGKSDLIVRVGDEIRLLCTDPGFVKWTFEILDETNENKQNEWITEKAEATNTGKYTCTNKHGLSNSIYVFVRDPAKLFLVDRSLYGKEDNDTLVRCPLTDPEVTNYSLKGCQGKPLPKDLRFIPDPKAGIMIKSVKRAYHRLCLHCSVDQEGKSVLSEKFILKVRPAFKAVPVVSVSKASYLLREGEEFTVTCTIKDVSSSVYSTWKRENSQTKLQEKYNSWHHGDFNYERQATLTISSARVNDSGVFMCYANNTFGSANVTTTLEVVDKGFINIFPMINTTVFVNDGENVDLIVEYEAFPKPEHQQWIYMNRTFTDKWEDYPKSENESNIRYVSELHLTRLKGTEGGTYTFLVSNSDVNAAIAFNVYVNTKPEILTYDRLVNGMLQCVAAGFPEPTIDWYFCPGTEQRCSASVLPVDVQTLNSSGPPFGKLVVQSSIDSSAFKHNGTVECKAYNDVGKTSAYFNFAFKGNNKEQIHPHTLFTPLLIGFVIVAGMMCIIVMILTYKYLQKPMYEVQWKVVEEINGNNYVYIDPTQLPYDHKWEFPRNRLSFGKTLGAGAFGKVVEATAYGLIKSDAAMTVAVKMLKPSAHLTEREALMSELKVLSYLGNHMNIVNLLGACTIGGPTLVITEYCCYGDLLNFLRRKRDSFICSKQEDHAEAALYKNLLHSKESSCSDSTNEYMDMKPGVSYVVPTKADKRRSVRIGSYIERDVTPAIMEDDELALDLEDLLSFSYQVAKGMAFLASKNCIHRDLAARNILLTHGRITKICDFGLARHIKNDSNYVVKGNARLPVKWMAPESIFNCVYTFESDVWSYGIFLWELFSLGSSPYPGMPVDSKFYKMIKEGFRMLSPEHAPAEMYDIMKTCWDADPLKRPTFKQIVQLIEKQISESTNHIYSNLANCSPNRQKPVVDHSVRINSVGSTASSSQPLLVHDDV

[5] = molecular target: Serine/threonine-protein kinase PRP4 homolog (Homo sapiens, UniProt Q13523); assay: Inhibition of recombinant human PRP4 (663 to end residues) using casein as substrate incubated for 40 mins in presence of [gamma33P]ATP by radiometric scintillation counting analysis
Chain of Serine/threonine-protein kinase PRP4 homolog (Q13523 whole entry): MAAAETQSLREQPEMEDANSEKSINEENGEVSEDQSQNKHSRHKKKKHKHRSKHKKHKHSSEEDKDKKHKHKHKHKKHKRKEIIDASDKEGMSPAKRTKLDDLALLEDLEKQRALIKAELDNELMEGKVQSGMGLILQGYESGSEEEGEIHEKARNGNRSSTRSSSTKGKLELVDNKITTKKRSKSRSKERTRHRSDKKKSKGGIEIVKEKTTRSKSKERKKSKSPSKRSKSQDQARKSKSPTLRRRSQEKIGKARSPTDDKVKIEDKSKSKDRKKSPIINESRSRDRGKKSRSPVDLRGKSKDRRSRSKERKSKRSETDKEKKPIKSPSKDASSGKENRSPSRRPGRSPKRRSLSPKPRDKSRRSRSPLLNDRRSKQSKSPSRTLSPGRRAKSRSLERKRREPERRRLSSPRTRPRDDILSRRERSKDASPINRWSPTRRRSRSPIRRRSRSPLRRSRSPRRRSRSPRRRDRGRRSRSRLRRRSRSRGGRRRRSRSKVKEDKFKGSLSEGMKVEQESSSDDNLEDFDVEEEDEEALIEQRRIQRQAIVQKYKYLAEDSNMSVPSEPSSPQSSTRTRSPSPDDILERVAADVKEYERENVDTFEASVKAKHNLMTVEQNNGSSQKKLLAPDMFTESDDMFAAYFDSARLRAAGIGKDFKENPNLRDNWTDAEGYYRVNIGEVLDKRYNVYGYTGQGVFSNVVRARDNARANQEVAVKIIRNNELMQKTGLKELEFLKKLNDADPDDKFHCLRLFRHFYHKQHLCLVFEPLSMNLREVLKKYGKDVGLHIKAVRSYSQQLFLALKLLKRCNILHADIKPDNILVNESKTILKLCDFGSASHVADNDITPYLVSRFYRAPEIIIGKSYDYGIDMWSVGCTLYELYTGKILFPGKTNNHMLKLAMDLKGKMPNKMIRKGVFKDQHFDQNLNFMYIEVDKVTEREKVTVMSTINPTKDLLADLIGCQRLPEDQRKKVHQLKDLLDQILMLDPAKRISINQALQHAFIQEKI

[6] = molecular target: Interleukin-1 receptor-associated kinase 1 (Homo sapiens, UniProt P51617); assay: Inhibition of human recombinant IRAK1 (194 to end residues) using myelin basic protein as substrate after 40 mins by [gamma-33ATP] by radiometric scintillation counting analysis
[7] = molecular target: Serine/threonine-protein kinase Chk2 (Homo sapiens, UniProt O96017, R145W); assay: Inhibition of recombinant human CHK2 R145W mutant (5 to end residues) using KKKVSRSGLYRSP as substrate incubated for 40 mins in presence of [gamma-33ATP] by radiometric scintillation counting analysis
[8] = molecular target: Receptor tyrosine-protein kinase erbB-2 (Homo sapiens, UniProt P04626, G778D); assay: Inhibition of recombinant human ERBB2 G778D (676 to end residues) using poly(Glu, Tyr) 4:1 as substrate after 40 mins in presence of [gamma-33ATP] by radiometric scintillation counting analysis
[9] = Inhibition of activated recombinant human TEC F514V mutant (174 to end residues) using EFPIYDFLPAKKK as substrate incubated for 40 mins in presence of [gamma33P]ATP by radiometric scintillation counting analysis
[10] = molecular target: Serine/threonine-protein kinase STK11 (Homo sapiens, UniProt Q15831); assay: Inhibition of recombinant full length human LKB1 using LSNLYHQGKFLQT as substrate after 40 mins in presence of [gamma-33ATP] by radiometric scintillation counting analysis
[11] = molecular target: Calcium/calmodulin-dependent protein kinase type 1D (Homo sapiens, UniProt Q8IU85); assay: Inhibition of recombinant full length human CaMK1delta using calmodulin as substrate incubated for 40 mins in presence of [gamma-33ATP] by radiometric scintillation counting analysis
[12] = molecular target: Serine/threonine-protein kinase VRK2 (Homo sapiens, UniProt Q86Y07); assay: Inhibition of recombinant human VRK2 (1 to 336 residues) using casein as substrate incubated for 40 mins in presence of [gamma33P]ATP by radiometric scintillation counting analysis
Chain of Serine/threonine-protein kinase VRK2 (Q86Y07 whole entry, the tested form may be a part): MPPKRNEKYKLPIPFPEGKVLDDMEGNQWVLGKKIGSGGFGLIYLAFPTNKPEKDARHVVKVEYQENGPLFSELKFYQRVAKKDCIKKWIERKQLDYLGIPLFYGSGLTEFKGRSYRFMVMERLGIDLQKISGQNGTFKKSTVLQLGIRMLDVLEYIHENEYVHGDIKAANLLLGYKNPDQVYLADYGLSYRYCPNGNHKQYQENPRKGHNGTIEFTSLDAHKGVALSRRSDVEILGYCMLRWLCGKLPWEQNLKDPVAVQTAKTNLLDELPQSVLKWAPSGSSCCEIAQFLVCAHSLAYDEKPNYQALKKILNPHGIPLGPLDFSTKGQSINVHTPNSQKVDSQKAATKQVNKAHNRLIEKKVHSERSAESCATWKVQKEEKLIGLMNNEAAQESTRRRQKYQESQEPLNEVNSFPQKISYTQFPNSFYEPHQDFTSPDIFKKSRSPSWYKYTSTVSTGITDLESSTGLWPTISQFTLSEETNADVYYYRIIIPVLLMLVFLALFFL

[13] = molecular target: Serine/threonine-protein kinase B-raf (Homo sapiens, UniProt P15056, V600E); assay: Inhibition of recombinant full length human B-Raf V599E mutant (416 to end residues) using myelin basic protein as substrate incubated for 40 mins in presence of [gamma-33ATP] by radiometric scintillation counting analysis
[14] = molecular target: Tau-tubulin kinase 1 (Homo sapiens, UniProt Q5TCY1); assay: Inhibition of recombinant human TTBK1 (1 to 479 residues) using casein as substrate incubated for 40 mins in presence of [gamma33P]ATP by radiometric scintillation counting analysis
[15] = molecular target: CDK3/Cyclin E (Homo sapiens, UniProt Q00526); assay: Inhibition of recombinant full length human CDK3/CyclinE using Histone H1 as substrate incubated for 40 mins in presence of [gamma-33ATP] by radiometric scintillation counting analysis; type: protein-complex assay
[16] = molecular target: BDNF/NT-3 growth factors receptor (Homo sapiens, UniProt Q16620); assay: Inhibition of recombinant human TRKB (455 to end residues) using poly(Glu, Tyr) 4:1 as substrate incubated for 40 mins in presence of [gamma33P]ATP by radiometric scintillation counting analysis
[17] = molecular target: Serine/threonine-protein kinase 24 (Homo sapiens, UniProt Q9Y6E0); assay: Inhibition of recombinant human MST3 (1 to 304 residues) using ERMRPRKRQGSVR as substrate measured after 40 mins in presence of [gamma33P]ATP by radiometric scintillation counting analysis
Chain of Serine/threonine-protein kinase 24 (Q9Y6E0 whole entry, the tested form may be a part): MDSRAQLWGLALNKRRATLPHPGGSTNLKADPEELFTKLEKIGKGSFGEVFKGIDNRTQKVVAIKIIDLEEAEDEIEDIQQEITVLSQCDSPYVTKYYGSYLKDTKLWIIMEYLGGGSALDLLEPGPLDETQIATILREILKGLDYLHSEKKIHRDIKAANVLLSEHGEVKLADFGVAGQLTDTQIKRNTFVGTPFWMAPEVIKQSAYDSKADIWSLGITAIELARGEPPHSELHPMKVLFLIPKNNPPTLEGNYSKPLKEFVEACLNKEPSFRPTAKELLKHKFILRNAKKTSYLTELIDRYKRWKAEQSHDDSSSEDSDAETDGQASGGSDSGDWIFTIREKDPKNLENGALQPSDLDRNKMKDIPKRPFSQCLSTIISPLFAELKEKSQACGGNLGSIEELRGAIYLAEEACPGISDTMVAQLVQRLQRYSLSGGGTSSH

[18] = molecular target: Proto-oncogene tyrosine-protein kinase Src (Homo sapiens, UniProt P12931); assay: Inhibition of recombinant human C-Src using […] as substrate incubated 40 mins in presence of [gamma-33ATP] by radiometric scintillation counting analysis
[19] = molecular target: Serine/threonine-protein kinase D2 (Homo sapiens, UniProt Q9BZL6); assay: Inhibition of recombinant full-length human PKD2 using KKLNRTLSVA as substrate incubated for 40 mins in presence of [gamma33P]ATP by radiometric scintillation counting analysis
Chain of Serine/threonine-protein kinase D2 (Q9BZL6 whole entry): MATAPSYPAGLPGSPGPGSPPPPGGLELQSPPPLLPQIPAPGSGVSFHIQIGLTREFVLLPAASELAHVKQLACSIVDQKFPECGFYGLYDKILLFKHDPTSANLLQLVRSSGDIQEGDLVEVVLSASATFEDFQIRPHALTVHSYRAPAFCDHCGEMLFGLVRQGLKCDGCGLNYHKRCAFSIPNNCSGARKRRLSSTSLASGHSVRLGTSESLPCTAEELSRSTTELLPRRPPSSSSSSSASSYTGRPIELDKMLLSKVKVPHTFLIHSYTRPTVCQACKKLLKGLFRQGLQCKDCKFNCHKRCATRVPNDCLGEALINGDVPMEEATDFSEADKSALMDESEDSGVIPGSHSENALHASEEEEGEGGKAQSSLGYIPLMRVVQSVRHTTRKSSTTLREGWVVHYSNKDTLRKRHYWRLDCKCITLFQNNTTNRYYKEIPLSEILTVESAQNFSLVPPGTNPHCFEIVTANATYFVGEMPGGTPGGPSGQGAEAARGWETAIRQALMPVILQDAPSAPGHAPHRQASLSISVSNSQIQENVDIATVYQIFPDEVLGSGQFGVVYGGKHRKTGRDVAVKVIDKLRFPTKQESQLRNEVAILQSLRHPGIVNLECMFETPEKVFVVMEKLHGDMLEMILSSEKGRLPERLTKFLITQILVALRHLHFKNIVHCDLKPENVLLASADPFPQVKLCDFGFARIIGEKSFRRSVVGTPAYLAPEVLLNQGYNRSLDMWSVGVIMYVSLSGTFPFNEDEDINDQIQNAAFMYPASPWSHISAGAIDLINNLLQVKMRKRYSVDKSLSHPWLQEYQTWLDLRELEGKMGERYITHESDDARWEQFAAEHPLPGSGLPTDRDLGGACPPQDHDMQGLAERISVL

[20] = molecular target: Serine/threonine-protein kinase PLK1 (Homo sapiens, UniProt P53350); assay: Inhibition of recombinant full-length human Plk1 using casein as substrate incubated for 40 mins in presence of [gamma33P]ATP by radiometric scintillation counting analysis
[21] = molecular target: Ephrin type-B receptor 1 (Homo sapiens, UniProt P54762); assay: Inhibition of recombinant human EphB1 (564 to end residues) using […] as substrate after 40 mins in presence of [gamma-33ATP] by radiometric scintillation counting analysis
Chain of Ephrin type-B receptor 1 (P54762 whole entry): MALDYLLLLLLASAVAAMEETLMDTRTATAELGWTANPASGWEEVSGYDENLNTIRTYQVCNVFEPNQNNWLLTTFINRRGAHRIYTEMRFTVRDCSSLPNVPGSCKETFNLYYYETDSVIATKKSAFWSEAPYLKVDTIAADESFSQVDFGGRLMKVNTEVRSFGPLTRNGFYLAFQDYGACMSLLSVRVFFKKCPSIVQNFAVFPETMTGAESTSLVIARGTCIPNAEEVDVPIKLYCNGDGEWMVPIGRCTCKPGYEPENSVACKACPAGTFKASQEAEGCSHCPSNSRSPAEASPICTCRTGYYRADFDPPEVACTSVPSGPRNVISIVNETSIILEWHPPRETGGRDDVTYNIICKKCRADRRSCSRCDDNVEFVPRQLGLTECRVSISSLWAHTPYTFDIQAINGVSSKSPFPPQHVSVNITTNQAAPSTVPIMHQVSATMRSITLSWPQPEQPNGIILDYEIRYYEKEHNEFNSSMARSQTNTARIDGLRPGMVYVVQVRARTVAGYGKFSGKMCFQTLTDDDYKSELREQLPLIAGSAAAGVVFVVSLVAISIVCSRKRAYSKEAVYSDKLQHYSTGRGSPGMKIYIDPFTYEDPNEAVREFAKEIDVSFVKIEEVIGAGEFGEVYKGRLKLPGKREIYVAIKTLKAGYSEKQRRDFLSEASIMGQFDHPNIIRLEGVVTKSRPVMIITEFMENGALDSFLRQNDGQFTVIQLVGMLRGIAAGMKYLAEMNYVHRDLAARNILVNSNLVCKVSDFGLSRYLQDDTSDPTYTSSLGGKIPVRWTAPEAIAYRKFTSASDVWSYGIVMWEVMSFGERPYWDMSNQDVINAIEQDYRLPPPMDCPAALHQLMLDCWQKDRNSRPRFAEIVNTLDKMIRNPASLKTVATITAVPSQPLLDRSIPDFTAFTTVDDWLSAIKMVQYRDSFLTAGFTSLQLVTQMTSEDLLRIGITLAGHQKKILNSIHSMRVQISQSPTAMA

[22] = Apparent permeability in dog MDCK cells incubated for 90 mins by LC-MS analysis; type: ADME, cell-based, Canis lupus familiaris
[23] = molecular target: Hepatocyte growth factor receptor (Homo sapiens, UniProt P08581, M1250T); assay: Inhibition of recombinant human MET A1209G/V1290L/M1268T triple mutant (974 to end residues) using KKKGQEEEYVFIE as substrate incubated for 40 mins in presence of [gamma-33ATP by radiometric scintillation counting analysis
[24] = molecular target: Serine/threonine-protein kinase ULK2 (Homo sapiens, UniProt Q8IYT8); assay: Inhibition of recombinant human ULK2 (1 to 306 residues) using casein as substrate incubated for 40 mins in presence of [gamma33P]ATP by radiometric scintillation counting analysis
[25] = molecular target: NUAK family SNF1-like kinase 1 (Homo sapiens, UniProt O60285); assay: Inhibition of human recombinant ARK5 (2 to end residues) using KKKVSRSGLYRSP as substrate incubated for 40 mins in presence of [gamma-33ATP] by radiometric scintillation counting analysis

With CN(C)c1ccc(C(=O)Nc2cccc(NC(=O)COc3ccc4c(=O)ccoc4c3)c2)cc1 the IC50 [1] was > 10 µM, the IC50 [2] was > 10 µM and the IC50 [3] was > 10 µM. For the same compound, the IC50 [4] was > 10 µM, the IC50 [5] was > 10 µM and the IC50 [6] was > 10 µM. For the same compound, the IC50 [7] was > 10 µM, the IC50 [8] was > 10 µM and the IC50 [9] was > 10 µM. The IC50 [10] was > 10 µM, the IC50 [11] was > 10 µM and the IC50 [12] was > 10 µM. The IC50 [13] was > 10 µM, the IC50 [14] was > 10 µM and the IC50 [15] was > 10 µM. The IC50 [16] was > 10 µM, the IC50 [17] was > 10 µM and the IC50 [18] was > 10 µM. For the same compound, the IC50 [19] was > 10 µM, the IC50 [20] was > 10 µM and the IC50 [21] was > 10 µM. The Papp at 1.5 h [22] was 9.41 ×10⁻⁶ cm/s, the IC50 [23] was > 10 µM and the IC50 [24] was > 10 µM. For the same compound, the IC50 [25] was > 10 µM.
